Results as given in patent publication US8377883B2, “Peptide for anti-angiogenesis and use thereof” (Beijing Institute for Cancer Research, priority 2006, dated 2013).

What was measured:
[1] = test system: human lung cancer PG cells; assay: Tumor suppression in human lung cancer PG tumor-bearing nude mice model; format: in vivo, Balb/c nude mice; conditions: 50 μg/100 μl PBS/injection, angulus oculi medialis vein once every other day, 10 times; vs vehicle, P<0.05
Description: In order to confirm the biological effects of FpAT on the growth of human deriving tumors in nude mice in vivo, a tumor suppression experiment was carried out in this example using human gastric carcinoma BGC-823 cells tumor-bearing nude mice model, human lung cancer PG cells tumor-bearing nude mice model and human colon cancer HT-29 cells tumor-bearing nude mice model.
Twenty 5-week old Balb/c nude mice purchased from Animal Center Of Chinese Academy Of Medical Sciences were inoculated subcutaneously in forelimb with human gastric carcinoma BGC-823 cells (National Institute for the Control of Pharmaceutical and Biological Products) (5×10^6/100 μl/mouse), human lung cancer PG cells (National Institute for the Control of Pharmaceutical and Biological Products) (5×10^6/100 μl/mouse) or human colon cancer HT-29 cells (ATCC® Number: HTB-38™) (5×10^6/100 μl/mouse). On the next day after inoculation, each kind of inoculated cells were divided into 2 groups randomly with 5 mice per group. […] Observation was continued for another 20 days after administration was stopped, and during this period the long and short diameters of the tumors were measured with a vernier caliper once every three days, and the volumes of the tumor mass were calculated according to formula ½×long diameter×short diameter^2. […]

[2] = test system: chick chorioallantoic membrane vessel; assay: Proliferation of chick chorioallantoic membrane vessel; conditions: 10 μl of 1 μg/μL on glass fiber filter membrane, 24 hours
Description: In this example an experiment of proliferation of chick chorioallantoic membrane vessel was carried out to test suppressing effects of FpAT on angiogenesis.
The test was performed according to the method described in the reference “Fu Shengfa, Lu yinglin, Zhang Chaoshan et al., A chick chorioallantoic membrane technique to test function of vascular growth factors, Bulletin of the Academy of Military Medical Sciences 1993, 17:294-97”. Fresh fertilized hen eggs were immersed into 0.1% benzalkonium bromide solution at 38° C. for 2 minutes, and then incubated in an incubator at 37.5° C. in a humidity of 60-70% for 3 days. Then the eggs with shell removed were transferred to plate and cultured. The samples were separated into groups and administered when the allantoic membrane grew to about 2 cm^2, 5 chicken embryos per group. 10 μl of FpAT (1 μg/μL), PBS (negative control) was dropped on a glass fiber filter membrane of Φ4 mm, which was placed at distal end of chorioallantoic membrane, and cultured for 24 hours. The results were observed and recorded by taking photos. The experiment was repeated twice.

[3] = test system: human umbilical vein endothelial cells (HUVECs); assay: Apoptosis of HUVECs (flow cytometry, DNA Ladder, RT-PCR, Western blotting); format: cell-based; conditions: 50 μg/ml PBS, 96 hours
Description: Human umbilical cord samples (obtained from Beijing Obstetrics & Gynecology Hospital) was digested with 0.1% collagenase I (available from GIBCO BRL company), followed by a centrifugation (1000 rpm, 10 minutes) to collect human umbilical vein endothelial cells (HUVECs). After suspended in 20% FCS/RPMI1640, the cells were transferred into plastic bottles for culture in CO2 incubator (37° C., 5% CO2). Twelve hours later, unattached cells were discarded by changing medium, and then the remaining cells were cultured conventionally with the medium changed every 3 days. The vehicle (PBS) and FpAT (50 μg/ml PBS) were added separately, and the cells were collected at 96 hours. Flow Cytometry: the cells were digested with 0.04% trypsin-EDTA, collected and washed 3 times with PBS; the cells were suspended by adding 200 μl PBS and aspirated gently to avoid formation of cell mass. 800 μl cold absolute alcohol was added, and then the cells was fixed at 4° C. overnight; and after a centrifugation at 1000×g for 5 min at 4° C., and the supernatant were discarded. The cells were washed twice with PBS, re-suspended with 200 μl PBS containing RNaseA at a concentration of 1 mg/ml, and incubated at 37° C. for 30 minutes. PI staining solution (final concentration of 50 μg/ml) was added, and the well mixed cells were subjected to a reaction at 4° C. for 30 minutes in the dark. The detection was performed on a flow cytometer. DNA Ladder analysis: the cells differently treated (PBS and FpAT) were collected by a centrifugation at 1000 rpm for 5 minutes, and the cells were lysed with lysis solution (10 mM Tris-HCl, 5 mM EDTA, 1% Triton-X 100, 10 mM NaCl, 100 μg/ml protease K), and aspirated repeatedly to cut viscous genomic DNA, which theoretically generates DNA fragments in a uniform size of 20 to 30 kb; phenols and chloroform were used to extract, and after precipitated with absolute ethanol, the total DNA were dissolved in TE or water, and treated with Rnase A at 37° C. for 1˜2 hours. Five microliters was taken for an electrophoresis on 1.8% agarose gel. […]

For “H2N-Asp-Ser-Gly-Glu-Gly-Asp-Phe-Leu-Ala-Glu-Gly-Gly-Gly-Val-Arg-COOH (H-DSGEGDFLAEGGGVR-OH; listed as Homo sapiens) [FpAT, fibrinopeptide A truncated, carboxyl terminal 15 amino acids of fibrinopeptide A]”, the “growth of human lung cancer PG cells in nude mice (tumor mass)” value [1] was “could suppress the growths”, the “blood vessel distribution and original blood vessel” value [2] was “inducing disorder of blood vessel distribution and atrophy of original blood vessel” and the blood vessel formation [2] was “suppressing remarkably blood vessel formation”. The “DNA Ladder in total DNA of HUVECs” value [3] was “presence of plenty of DNA Ladder”, the “apoptosis of HUVECs by flow cytometry” value ([3]; PI staining) was “presence of an evidence apoptosis peak” and the “effect on cell cycle of HUVECs” value ([3]; flow cytometry) was “no remarkable effects on cell cycle”.
